“Also recorded” adds a separate entry of the source.
What was measured:
HO-1 = assay: Induction of HO-1 in RAW cells (Western blot); assay type: cell-based, mouse; conditions: FIG. 9; 30-300 nM, 24 hours
[1] = system: RMPI 8226 human myeloma cells; assay: Proliferation of RMPI 8226 human myeloma cells (Coulter counter); assay type: cell-based; conditions: FIG. 1; treated 3-4 days
Description: (§1) FIG. 1. TBEs inhibit proliferation of RMPI 8226 human myeloma cells and U937 human leukemia cells. Cells were treated with TBEs and triterpenoids for 3-4 days and counted by Coulter counter. […] CDDO is presently in clinical trial for treatment of acute myelogenous leukemia. TP-235 is the imidazolide derivative of CDDO.
(§2) Cells were treated with triterpenoids and TBEs for 3-4 days and counted by Coulter counter. […] CDDO is presently in clinical trial for treatment of acute myelogenous leukemia. TP-235 is the imidazolide derivative of CDDO.

heme oxygenase-1 [2] = assay: Induction of heme oxygenase-1 in stomach of CD-1 mice after gavage; assay type: in vivo; conditions: FIG. 12; male CD-1 mice, 1 μmol by gavage in DMSO, six hours
Source text: FIG. 12. […] Male CD-1 mice (3 per group) were gavaged with 1 μmol TBEs, CDDO or CDDO-Im in DMSO. Six hours later, stomachs were harvested and homogenized. Lysates were separated by SDS-PAGE, probed with HO-1 antibodies, and developed by ECL.

heme oxygenase-1 [3] = assay: Induction of heme oxygenase-1 in liver of CD-1 mice after gavage; assay type: in vivo
Description: FIG. 3. […] CD-1 mice (2 per group) were gavaged with TBEs or CDDO-Im in DMSO. After 6 h, livers were harvested and homogenized. Lysates were separated by SDS-PAGE, probed with HO-1 antibodies, and developed by ECL.
FIG. 11. […] Male CD-1 mice (3 per group) were gavaged with 1 μmol TBEs, CDDO or CDDO-Im in DMSO. Six hours later, livers were harvested and homogenized. Lysates were separated by SDS-PAGE, probed with HO-1 antibodies, and developed by ECL.
CD-1 mice (2 per group) were gavaged with TBEs or CDDO-Im in DMSO. After 6 h, livers were harvested and homogenized. Lysates were separated by SDS-PAGE, probed with HO-1 antibodies, and developed by ECL.

[4] = system: NO production in RAW cells; assay: Inhibition of NO production in RAW cells stimulated with interferon-γ; assay type: cell-based, mouse
[5] = system: aflatoxin-induced tumorigenesis; set-up: species or system F344 rats; conditions: rat, in vivo
U937 cells = assay: Apoptosis in U937 cells (Annexin V); assay type: cell-based, human; conditions: FIG. 8, 24 hours
Description: FIG. 8. Induction of apoptosis in U937 cells by TBEs. Cells were treated with TBEs and triterpenoids for 24 hours.
Cells were treated for 24 hours.

Jurkat cells = assay: Proliferation of Jurkat cells (Coulter counter); assay type: cell-based; conditions: FIG. 6; 3-4 days
Description: FIG. 6. TBEs inhibit proliferation of Jurkat cells. Cells were treated with TBEs and triterpenoids for 3-4 days and counted by Coulter counter. […] Thus, it is to be expected that TBEs may have useful activities in regulation of lymphocyte, as well as macrophage, function.
Cells were treated with TBEs for 3-4 days and counted by Coulter counter.

[6] = system: CD11b expression in U937 cells; assay: CD11b expression in U937 cells (FACS); assay type: cell-based, human; conditions: FIG. 4; 10-100 nM, 4 days
Description: FIG. 4. TBE-31 induces CD11b expression in U937 cells. Cells were incubated with CDDO-Im or TBE-31 (10-100 nM) for 4 days. CD11b expression was measured by FACS analysis. Induction of CD11b is a marker of leukemia cell differentiation.
Cells were incubated with CDDO-Im or TBE-31 (10-100 nM) for 4 days. CD11b expression was measured by FACS analysis. Induction of CD11b is a marker of leukemia cell differentiation.

[7] = system: U937 human leukemia cells; assay: Proliferation of U937 human leukemia cells (Coulter counter); assay type: cell-based; conditions: FIG. 1; treated 3-4 days
Description: as §1, §2

heme oxygenase-1 [8] = assay: Induction of heme oxygenase-1 in U937 cells (Western blot); assay type: cell-based, human; conditions: FIG. 2; 0.1-1 μM, 7 hours
Description: FIG. 2. […] Cells were incubated with TBEs and triterpenoids (0.1-1 μM) for 7 hours. Total cell lysates were analyzed by SDS-PAGE, probed with an HO-1 antibody, and developed by ECL. […] None of the other TBEs that were tested provided significant induction of heme oxygenase.
Cells were incubated with triterpenoids or TBEs (0.1-1 μM) for 7 hours. Total cell lysates were analyzed by SDS-PAGE, probed with an HO-1 antibody, and developed by ECL. […] None of the other TBEs that were tested provided significant induction of heme oxygenase.

iNOS = assay: Inhibition of iNOS induction in RAW cells stimulated with IFN-γ (Western blot); assay type: cell-based, mouse; conditions: FIG. 5; IFNg 10 ng/ml, 24 hours
[9] = system: A549 human lung cancer cells; assay: Apoptosis in A549 human lung cancer cells; assay type: cell-based; conditions: FIG. 7; 24 h
Description: FIG. 7. TBE-31 induces apoptosis in A549 human lung cancer cells. Cells were treated with TBE-31 for 24 h. A549 is a classic human lung cancer cell line.
Cells were treated for 24 h. A549 is a classic human lung cancer cell line.

C#CC12C=C(C#N)C(=O)C=C1C1(C)C=C(C#N)C(=O)C(C)(C)C1CC2 (racemic) [TBE-31, 10a-ethynyl-4b,8,8-trimethyl-3,7-dioxo-3,4b,7,8,8a,9,10,10a-octahydrophenanthrene-2,6-dicarbonitrile]
Induction of HO-1 in RAW cells (HO-1): higher inducer than CDDO-Im
Inhibition of proliferation of RMPI 8226 human myeloma cells [1]: by far the most potent; also recorded: equivalent to that of CDDO itself (TP-151)
Induction of heme oxygenase-1 in stomach (heme oxygenase-1 [2]): induces heme oxygenase-1 in stomach
Induction of heme oxygenase-1 in liver in vivo (heme oxygenase-1 [3]; FIG. 3, CD-1 mice, gavage in DMSO, livers after 6 h): orally active agent; also recorded: comparable to that found with CDDO-Imidazolide
Induction of heme oxygenase-1 in liver (heme oxygenase-1 [3]; FIG. 11, male CD-1 mice, 1 μmol by gavage in DMSO, six hours): potent inducer of heme oxygenase-1 in liver
IC50 ([4]; Mus musculus, Table 5, C-8a functionalized TBE-9 analogs, stimulated with interferon-γ, read-out: IC50 (nM), NO production in RAW cells): 1 nM
Potency for inhibition of NO production in RAW cells (in words) ([4]; RAW cells, interferon-γ): extremely potent at one nanomolar concentrations; also recorded: higher than CDDO and equal to TP-225
Formation of preneoplastic (GST-P positive) foci in liver [5]: reduces the formation of preneoplastic foci
Induction of apoptosis in U937 cells (U937 cells): most active of the TBEs; also recorded: markedly more active than CDDO (TP-151)
Inhibition of proliferation of Jurkat cells (Jurkat cells): extremely active, more so than CDDO (TP-151)
Induction of CD11b expression in U937 cells [6]: strongly induces CD11b at 100 nM; also recorded: comparable to that of CDDO-Im at 10 and 30 nM; also recorded: more potent than CDDO-Im at 100 nM
Inhibition of proliferation of U937 human leukemia cells [7]: by far the most potent; also recorded: more potent than CDDO
Induction of heme oxygenase-1 in U937 cells (heme oxygenase-1 [8]): potent inducer of heme oxygenase; also recorded: markedly more potent than TP-151 (CDDO), and almost as potent as TP-235
Suppression of induction of iNOS in RAW 264.7 cells (iNOS): potent suppressor of induction of iNOS; also recorded: significantly more potent than CDDO, and almost as potent as CDDO-Imidazolide
Induction of apoptosis in A549 cells [9]: can induce both early and late apoptosis

Source: patent US8067394B2, “Synthesis and biological activities of new tricyclic-bis-enones (TBEs)” (Trustees of Dartmouth College, priority 2006, dated 2011)
